Measurements published in patent US10526326B2, “Crystalline form and acetic acid adducts of palbociclib” (RATIOPHARM GMBH, priority 2015, dated 2020).
Values after ≈ are worked out from the molar mass of the structure shown. Where a name gives a salt, the structure may show the parent alone.

Assays:
[1] = Dynamic vapor sorption measurement; assay type: physicochemical; conditions: for Diffractogram after DVS measurement versus initial: XRPD after humidity cycles
Procedure: Vapour sorption experiments were performed in the instrument SPSx-1 μ (Projekt Messtechnik, Ulm, Germany) at a temperature of 25° C., using the humidity cycles specified below: [table]

[2] = cited from earlier work
[3] = Solubility determination in aqueous solvents at 37° C.; assay type: physicochemical; conditions: for solubility at 60 min / solubility at 15 min: 37 °C, thermodynamic from solid
Procedure: Approximately 200 mg (exactly weighed) test substance was weighed into a glass vial, followed by addition of 2 mL solvent (water, 0.01M HCl, 20 mM NaOAc/HOAc pH 4.5, 50 mM KH2PO4 pH 6.8). A stirring bar was added, the vial was fixed in a block heater at 37° C. and the suspension was stirred with approximately 250 rpm. After 15 min and 1 hour samples were withdrawn, filtered through a 0.2 μm disposable filter, diluted with solvent and quantified by UHPLC/UV.

[4] = Solubility determination in organic solvents at room temperature; assay type: physicochemical; conditions: chloroform, 23 °C, organic solvent or mixture, thermodynamic from solid, 23° C. (room temperature)
Procedure: Solubilities in organic solvents (methanol, acetone, chloroform, DMSO) were determined similarly at room temperature with the difference that the suspensions were not stirred but treated with a vortex mixer for 20 s.

[5] = 25° C., humidity cycles 0-95% RH
[6] = 50 mM KH2PO4 buffer, pH 6.8, aqueous buffer, 50 mM KH2PO4 (pH 6.8)

SMILES: CC(=O)O.CC(=O)c1c(C)c2cnc(Nc3ccc(N4CCNCC4)cn3)nc2n(C2CCCC2)c1=O [Palbociclib acetic acid adduct Form 1]
- Sample weight change after the DVS measurement [1, 5]: −0.5%
- Diffractogram after DVS measurement versus initial [1]: practically identical with the initial one

SMILES: CC(=O)c1c(C)c2cnc(Nc3ccc(N4CCNCC4)cn3)nc2n(C2CCCC2)c1=O [Palbociclib in form of the free base, 6-acetyl-8-cyclopentyl-5-methyl-2-{[5-(1-piperazinyl)-2-pyridinyl]amino}pyrido[2,3-d]pyrimidin-7(8H)-one]
- Solubility under acidic conditions (in words) ([2]; at or below pH 4): good solubility
- Solubility in water (in words) [2]: practically insoluble

SMILES: CC(=O)c1c(C)c2cnc(Nc3ccc(N4CCNCC4)cn3)nc2n(C2CCCC2)c1=O [hydrochloride]
- Solubility in water (in words) [2]: good water solubility

SMILES: CC(=O)c1c(C)c2cnc(Nc3ccc(N4CCNCC4)cn3)nc2n(C2CCCC2)c1=O [Palbociclib in present crystalline Form, 6-acetyl-8-cyclopentyl-5-methyl-2-{[5-(1-piperazinyl)-2-pyridinyl]amino}pyrido[2,3-d]pyrimidin-7(8H)-one]
- solubility at 60 min ([3]; 0.01M HCl, pH 2, simulated gastric fluid): 4300 µg/mL (≈ 9.61 mM)
- solubility at 15 min ([3]; 20 mM NaOAc/HOAc buffer, pH 4.5, aqueous buffer, 20 mM NaOAc/HOAc (pH 4.5)): 16200 µg/mL (≈ 36.2 mM)
- solubility at 15 min [3, 6]: 100 µg/mL (≈ 0.223 mM)
- solubility at 60 min [3, 6]: 100 µg/mL (≈ 0.223 mM)
- Solubility in aqueous solvents compared with Form A (in words) ([3]; aqueous solvents): comparable to that of Form A
- Maximum water uptake [1, 5]: 1.3%
- Sample weight change after the DVS measurement [1, 5]: −0.2%
- Diffractogram after DVS measurement versus initial [1]: practically identical with the initial one
- solubility at 20 s [4]: 86100 µg/mL (≈ 192 mM)

SMILES: CC(=O)c1c(C)c2cnc(Nc3ccc(N4CCNCC4)cn3)nc2n(C2CCCC2)c1=O [dihydrochloride]
- Solubility in water (in words) [2]: good water solubility
